Patent US7625878B2, “Sulfoalkyl ether-alkyl ether cyclodextrin derivatives” (The University of Kansas, priority 2003, dated 2009)

Assays:
Format in all cases: physicochemical
[1] = binding constant K1:1 of inclusion complex with Nifedipine; conditions: substrate Nifedipine, value (spread)
Protocol: (§1) The following tables detail some of the SAE-AE-CD's according to the invention. These products were made according to the examples below. The table indicates the inclusion complexes formed with the indicated drugs and cyclodextrins as well as their corresponding linear binding constants (K1:1) determined at 25° C.
(§2) Excess amount of drug was added to a CD-containing aqueous solution (concentration ranging from 0 to 0.10M). […] The suspension was centrifuged for 5 min. at 3000 rpm (Dynac™ centrifuge, Clay Adams, Parsippany, N.J.). A 20 μL sample was obtained from the supernatant and diluted to 1-5-ml with glass double distilled water.
(§3) The mobile phase(s) was chosen in accordance with the properties of the analyzed drug and its behavior in interacting with the chromatographic support. Suitable exemplary conditions for specific drugs are detailed in the table below.
(§4) The following general procedure was used to determine the extent of inclusion complex formation for an active agent/cyclodextrin derivative combination. The change in absorbance due to inclusion complex formation for a drug was monitored. The change in absorbance value as a function of total ligand concentration at a fixed concentration of substrate was measured. The wavelength for analysis was chosen appropriately depending on the analyzed drug. […]

[2] = binding constant K1:1 of inclusion complex with α-Me-Prednisolone; conditions: substrate α-Me-Prednisolone, value (spread)
Protocol: as §1, §2, §3, §4

[3] = binding constant K1:1 of inclusion complex with Prednisolone; conditions: substrate Prednisolone, value (spread)
Protocol: as §1
(§5) The following general procedure was used to determine the extent of inclusion complex formation for an active agent/cyclodextrin derivative combination. The change in absorbance due to inclusion complex formation for a drug was monitored. The change in absorbance value as a function of total ligand concentration at a fixed concentration of substrate was measured. The wavelength for analysis was chosen appropriately depending on the analyzed drug. The analysis was performed using a Perkin Elmer double beam UV/Vis Lamda 6 instrument equipped with a data manager software and water jacketed multicell attachment. A circulating water bath was used to provide constant temperature during experiments. The data were linearized using the method described by Foster et al.: R. Foster, D. L. Hammich, A. A Wardley (Interaction of Polynitro compounds with Aromatic Hydroquinones and Bases. Part III. A New Method for Determining the Association Constants for Certain Interactions between Nitro Compounds and Bases in Solution. J. Chem. Soc. (1953) 3817-20). […]

[4] = binding constant K1:1 of inclusion complex with Nimodipine; conditions: substrate Nimodipine, value (spread)
Protocol: as §1, §5

[5] = binding constant K1:1 of inclusion complex with Nitrendipine; conditions: substrate Nitrendipine, value (spread)
Protocol: as §1, §5

[6] = binding constant K1:1 of inclusion complex with Clotrimazole; conditions: substrate Clotrimazole, value (spread)
Protocol: as §1, §5

[7] = binding constant K1:1 of inclusion complex with Triamcinolone; conditions: substrate Triamcinolone, value (spread)
Protocol: as §1, §5

[8] = binding constant K1:1 of inclusion complex with Camptothecin; conditions: substrate Camptothecin, value (spread)
Protocol: as §1, §2, §3

Row | K1:1 25° C. [1] | K1:1 25° C. [2] | K1:1 25° C. [3] | K1:1 25° C. [4] | K1:1 25° C. [5] | K1:1 25° C. [6] | K1:1 25° C. [7] | K1:1 25° C. [8] [M⁻¹] | Compound
1 | 121.9(35) | – | – | – | – | – | – | – | OC[C@H]1O[C@@H]2O[C@H]3[C@H](O)[C@@H](O)[C@@H](O[C@H]4[C@H](O)[C@@H](O)[C@@H](O[C@H]5[C@H](O)[C@@H](O)[C@@H](O[C@H]6[C@H](O)[C@@H](O)[C@@H](O[C@H]7[C@H](O)[C@@H](O)[C@@H](O[C@H]8[C@H](O)[C@@H](O)[C@@H](O[C@H]1[C@H](O)[C@H]2O)O[C@@H]8CO)O[C@@H]7CO)O[C@@H]6CO)O[C@@H]5CO)O[C@@H]4CO)O[C@@H]3CO [β-CD, β-cyclodextrin]
2 | 1416.1(162) | 3038(269) | 3300.42(21) | 1780(190) | 2508(59) | 1015(30) | 9769 (560) | 73 | OC[C@H]1O[C@@H]2O[C@H]3[C@H](O)[C@@H](O)[C@@H](O[C@H]4[C@H](O)[C@@H](O)[C@@H](O[C@H]5[C@H](O)[C@@H](O)[C@@H](O[C@H]6[C@H](O)[C@@H](O)[C@@H](O[C@H]7[C@H](O)[C@@H](O)[C@@H](O[C@H]8[C@H](O)[C@@H](O)[C@@H](O[C@H]9[C@H](O)[C@@H](O)[C@@H](O[C@H]1[C@H](O)[C@H]2O)O[C@@H]9CO)O[C@@H]8CO)O[C@@H]7CO)O[C@@H]6CO)O[C@@H]5CO)O[C@@H]4CO)O[C@@H]3CO [γ-CD, γ-cyclodextrin]
